Measurements reported in patent publication US9416151B2, “Use of glycyrrhetinic acid, glycyrrhizic acid and related compounds for prevention and/or treatment of pulmonary fibrosis” (priority 2010, dated 2016).
Entries after “also recorded” stand apart in the source; their conditions may differ.

Assays:
[1] = tested on: inflammatory mediators (IMs), including IL1a, TNFa, PF4 and VCAM-1; test: Inflammatory mediators in lung homogenates by ELISA, acute phase of IR-induced pneumonitis; format: in vivo, C57BL/6 fibrosis-prone mice; conditions: 2.5 days after thoracic IR 15 Gy; treatment from 6 h after IR; vs vehicle, p<0.05
Method: (§1) Briefly, C57BL/6 fibrosis-prone mice received a single-dose of thoracic IR at 15 Gy with a dose rate of 1.9 Gy/min. Six hours after IR exposure, the mice were divided into the following treatment groups: 1) normal (received 0 Gy; no treatment); 2) vehicle-treated; 3) GA-treated (30-40 mg/kg/q.o.d) (i.e. every other day) (the GA dosage used herein was derived from the effective dosage for humans (3-4 mg/kg), which is typically 6-10 times lower than that of mice); 4) dexamethasone-treated (Positive Control 1) (Dex, 3 mg/kg, i.m. or p.o. qod); 5) amifostine-treated (Positive Control 2) (Ami, 200 mg/kg/ i.v, 0.5 hr prior to irradiation); and 6) celebrex-treated (Positive Control 3) (30 mg/kg, po, qod).
The mice were sacrificed 2.5 days after IR exposure, and fresh lung tissue homogenates were prepared using lysis buffer mixed with protenase inhibitor cocktails. After protein concentration was adjusted to 1 mg/ml, the fresh lung homogenates were added to ELISA plates at a concentration of 100 μl/well. The levels of inflammatory mediators were measured by ELISA.

[2] = tested on: mice with IR-induced pneumonitis; test: Lung morphology, plasma exudation and inflammatory cell infiltration, acute phase of IR-induced pneumonitis; format: in vivo, C57BL/6 fibrosis-prone mice; conditions: 2.5 days after thoracic IR 15 Gy
Method: as §1
Briefly, C57BL/6 fibrosis-prone mice received a single-dose of thoracic IR at 15 Gy with a dose rate of 1.9 Gy/min and were treated as described in Example 2. The mice were sacrificed 2.5 days after IR exposure, and lung tissues were harvested and analyzed for morphological changes.

[3] = tested on: mice with IR-induced pulmonary fibrosis; test: Lung density by cone beam CT scan (CBCT); format: in vivo; conditions: for lung density (abnormal increase): 7.5 months after IR 15 Gy, P<0.05
Method: To assess effects of GA on lung density, cone beam CT scan (CBCT) of mouse lungs was performed. CBCT provides a complete 3D 650×650×428 scan (i.e. 428 slices) of the lungs with isotropic resolution at 270 μm (central slice shown in FIG. 11) in 30 seconds. The scanner achieves a CT density sensitivity of ˜[…], and thus, changes in lung density can be discerned. The CBCT imaging data were further analyzed using MATLAB software. The lungs were automatically segmented (FIG. 12A) and a 3D image was generated for each mouse lung (FIG. 12B). To reduce the effect of cardiac motion on the mean value of lung density, boundaries of the lungs were not used for analysis. A histogram of voxel intensity (pulmonary tissue density) of each mouse was created (FIG. 13).

[4] = Toxicity of long-term use: activity, fur morphology, body weight; format: in vivo
[5] = tested on: ACTH (adrenocorticotropic hormone); growth hormone (GH); conditions: in vivo
Method: The chemical structure of GA is similar to that of cortisol. Thus, this Example investigates whether the long-term use of GA would affect the production of cortisol and cause side effects. The plasma levels of ACTH (adrenocorticotropic hormone), a […], were measured using ELISA at Weeks 6, 7, and 10 after GA-treatments (40 mg/kg, god, p.o).
In addition, plasma levels of growth hormone (GH) were measured using ELISA at Weeks 6, 7, and 10 after GA treatments.

[6] = tested on: pulmonary fibrosis; test: Inventors' observation on dexamethasone in pulmonary fibrosis; format: in vivo; conditions: compared to non-treated controls
[7] = tested on: mice with IR-induced pneumonitis; test: Sub-acute phase of IR-induced pneumonitis: lung tissue and BALF assays; format: in vivo, C57BL/6 fibrosis-prone mice
Method: as §1
Briefly, C57BL/6 fibrosis-prone mice received a thoracic IR and were treated as described in Example 2. The mice were sacrificed 17 days after IR exposure, and lung tissues were harvested. Bronchoalveolar lavage fluid (BALF) assays were performed.

[8] = tested on: mice with IR-induced pulmonary fibrosis; test: Lung histology (H&E, trichrome), hydroxyproline and TGFβ in IR-induced fibrosis; format: in vivo
Method: Briefly, mice treated with GA (40 mg/kg/q.o.d.) for 3 months were sacrificed 7 months after IR exposure at 15 Gy, and lung tissue specimens were stained using hematoxylin and eosin (H&E) stain.
To assess whether GA reduces abnormal collagen deposition in lungs, lung tissue specimen was stained with collagen-binding trichrome blue dye.
The reduction of collagen deposition was further analyzed by measuring the levels of hydroxyproline, a key component of collagen.

[9] = tested on: mice with IR-induced pulmonary fibrosis; test: Respiratory rate in IR-induced pulmonary fibrosis (ventilator with pressure plethysmograph); format: in vivo
Method: Mice exposed to thoracic IR develops pulmonary fibrosis 6 months after IR exposure at 18 Gy, 8 months after IR exposure at 15 Gy, and 10 months after IR exposure at 12.5 Gy. To access the treatment effects of GA on lung fibrosis and lung function, the respiratory rate, lung density, and lung compliance of the mice were determined.
To assess improvement on respiratory function, mice exposed to thoracic IR at 15 Gy were treated with GA (30-40 mg/kg) q.o.d. or twice/week for 3 months. Mouse respiratory rate was measured using a Harvard rodent ventilator connected to a pressure plethysmograph.

[10] = tested on: SP-D and IL1a; test: Plasma levels of SP-D and IL1a, acute phase of IR-induced pneumonitis; format: in vivo, C57BL/6 fibrosis-prone mice; conditions: 2.5 days after thoracic IR; P<0.05
Method: as §1
IR damages lung epithelium and endothelium cells, and causes dysfunction of tight junction, increased cellular permeability, and the loss of integrity of the alveolar-capillary barrier. As a result, SP-D and IL1a abnormally enter into the blood from inflamed pulmonary tissue, leading to elevated plasma levels of SP-D and IL1a.
In this Example, C57BL/6 fibrosis-prone mice received a single-dose of thoracic IR at 15 Gy with a dose rate of 1.9 Gy/min and were treated as described in Example 2. The mice were sacrificed 2.5 days after IR exposure, and plasma levels of SP-D and IL1a were measured.

[11] = tested on: mice with IR-induced pulmonary fibrosis; test: Lung compliance (plethysmograph pressure-volume measurements); format: in vivo; conditions: 6.5 months after IR 15 Gy; P<0.05
Method: To assess the effects of GA on lung compliance, mice were anesthetized and their trachea were surgically exposed and incised. An 18-gauge, 1 cm stainless steel tube was inserted into the trachea and secured with surgical sutures. The respiratory rate and tidal volume of the mice were measured by a Harvard rodent ventilator. The average respiratory rate was 150 breaths per minute and the tidal volume was adjusted according to the weight (0.01 ml per gram body weight). The mice were then placed in a plethysmograph for pressure-volume measurements.

[12] = tested on: IL1a, TNFa, lymphotactin and p-selectin; test: Inflammatory mediators, sub-acute phase, GA administered 24 hours after IR exposure; format: in vivo, mice; conditions: GA given 24 hours after thoracic IR at 5, 10 and 15 Gy
Method: The administration of GA 24 hours after IR exposure can effectively block the surge in inflammatory responses.

[13] = tested on: IR-induced pneumonitis; test: GLA tablets in a lung cancer patient receiving 2nd IR treatment; format: in vivo; conditions: one patient
Method: In collaboration with radiation oncologists at the First Affiliated Hospital of Fujian Medical School in China, GLA tablets (produced by Minophagen Co. in Japan and available in pharmacies in China) were administered to a patient who received their 2nd IR treatment for lung cancer. […] To control the progression of pneumonitis, they received dexamethasone treatment. Due to tumor re-growth 9 months after their 1st IR treatment, they received a 2nd IR treatment with warnings that IR may worsen pneumonitis.
In order to mitigate IR-induced lung injury, GLA was administered at a does of 150 mg per day (equivalent to GA about 85 mg per day) starting from the date of 2nd treatment for 3 months. The result was unexpectedly surprising.

NCCCNCCSP(=O)(O)O [amifostine, reference compound]
levels of inflammatory mediators (IL1a, TNFa, PF4, VCAM-1) in lung homogenates [1]: extent of inhibition by GA was comparable
plasma exudation and inflammatory cell infiltration into the interstitial space [2]: produced similar treatment effects

Cc1ccc(-c2cc(C(F)(F)F)nn2-c2ccc(S(N)(=O)=O)cc2)cc1 [celebrex, reference compound]
lung density (abnormal increase) [3]: reduction in lung density by GA is more potent that of celebrex
levels of inflammatory mediators (IL1a, TNFa, PF4, VCAM-1) in lung homogenates [1]: extent of inhibition by GA was comparable
body weight ([4]; 7.5 months post IR 15 Gy, vehicle-treated mice lost 6-7 g): less severe loss of BW
plasma exudation and inflammatory cell infiltration into the interstitial space [2]: produced similar treatment effects

C[C@@H]1C[C@H]2[C@@H]3CCC4=CC(=O)C=C[C@]4(C)[C@@]3(F)[C@@H](O)C[C@]2(C)[C@@]1(O)C(=O)CO [dexamethasone, reference compound]
plasma growth hormone (GH) level [5]: increased
reduction in plasma ACTH levels [5]: 10-50 fold
course of pulmonary fibrosis and survival [6]: may result in worsening of pulmonary fibrosis, leading to lung failure or even earlier death

glycyrrhetinic acid [GA]
infiltration of neutrophils into the interstitial fluid (lung tissue) ([7]; 17 days after IR 15 Gy): suppression of infiltration of neutrophils; also recorded: mitigates the sub-acute phase of IR-induced pneumonitis
myeloperoxidase (MPO) activity in BALF ([7]; 17 days after IR 15 Gy, P<0.05): reduces
neutrophils infiltrated into bronchoalveolar lavage fluid ([7]; 17 days after IR 15 Gy, P<0.05): reduced; also recorded: reduces the number of neutrophils
levels of lymphotactin and p-selectin ([7]; 17 days after IR exposure, P<0.05): reduced; also recorded: reduces the levels of inflammatory mediators
lung morphology (H&E stain) ([8]; GA 40 mg/kg/q.o.d. for 3 months, 7 months after IR 15 Gy): near-normal morphology; also recorded: mitigates IR-induced pulmonary fibrosis
collagen deposition (trichrome blue dye) ([8]; IR-exposed mice): reduces collagen deposition; also recorded: mitigates IR-induced lung fibrosis
level of TGFβ ([8]; IR-exposed mice): reduced
hydroxyproline levels in the lungs ([8]; vs IR + vehicle control, P<0.05): reduced; also recorded: reduces collagen deposition
plasma growth hormone (GH) level [5]: increased
plasma ACTH levels ([5]; 40 mg/kg): rapidly returned to normal
Mean Density (lung density) ([3]; 1 year post IR exposure at 18 Gy, normal control −454, IR without treatment −364): −458 HU
lung density (abnormal increase) [3]: significantly reduced; also recorded: reduces lung density
levels of inflammatory mediators (IL1a, TNFa, PF4, VCAM-1) in lung homogenates [1]: effectively reduced levels of IMs; also recorded: inhibition effects
respiratory rate ([9]; 5 months after IR 18 Gy): reduction of respiratory rate
respiratory rate ([9]; 7 months after IR 15 Gy, GA 30-40 mg/kg q.o.d. or twice/week for 3 months, P<0.05): effectively reduced; also recorded: reduction of respiratory rate
plasma levels of IL1a [10]: effectively reduced; also recorded: reduces plasma levels of SP-D and ILa
plasma levels of SP-D [10]: effectively reduced; also recorded: reduces plasma levels of SP-D
lung compliance [11]: potently, and mostly effectively, enhanced
death during treatment ([4]; long-term GA treatment): No mouse died
side effects (activity, fur morphology, body weight) ([4]; long-term use): little side effects
plasma exudation and inflammatory cell infiltration into the interstitial space [2]: potently suppressed; also recorded: reduces inflammatory cell infiltration and plasma exudation
levels of IL1a, TNFa, lymphotactin and p-selectin [12]: potently reduced; also recorded: inhibits inflammatory responses

glycyrrhizic acid [GLA]
symptoms of pneumonitis or fibrosis ([13]; 150 mg per day for 3 months from 2nd IR treatment): did not exhibit any symptom of pneumonitis or fibrosis; also recorded: mitigates pneumonitis
lung density (CT) ([13]; CT of 1st vs 2nd IR treatment): significantly reduced
